# Reference: patent publication US7541193B2, “Caged sensors, regulators and compounds and uses thereof” (Panomics, Inc., priority 2002, dated 2009)
# Legend:
# PKC enzyme = test: in vitro biochemical PKC assay with PKC sensor (not caged); settings: 1 mM ATP, 1 μM PKC sensor (not caged), 22 nM PKC enzyme; read-out: IC-50 determined in an in vitro biochemical assay
# protein kinase C (PKC) = test: in vivo IC-50 determination with photolabile caged PKC sensor in living HeLa cells; type: cell-based; settings: HeLa cells transfected with 10 μM caged PKC sensor; 30 min inhibitor incubation; uncaging 1 J/cm^2 365 nm; 1 μM PMA; read-out: IC-50 determined in vivo
# Description: The caged PKC sensor was transfected into the cells at a concentration of 10 μM, as follows. To 37.5 μl serum-free DMEM, 2.5 μl Profect P-2 and then 10 μl of caged PKC sensor (diluted to 500 μM in PBS) were added. The reagents were mixed gently and incubated for 30 minutes at room temperature. The DMEM was removed from the well containing the HeLa cells, and the cells were washed once with PBS. After addition of 450 μl serum-free DMEM to the Profect P-2-caged sensor complex, 50 μl of the complex was added to each well. The HeLa cells were incubated with the complex at 37° C. for 2 h (or optionally longer, with the addition of fresh DMEM). To uncage the caged PKC sensor, cells were exposed from beneath the plate to 1 J/cm^2 365 nm UV light. Uncaging light was produced by a BlueWave ™ UV Spot Light System fitted with a Lightguide mount assembly, Cool Blue™ filter, and Lightguide rod lens assembly (Dymax Corp., on the internet at dymax.com, part numbers 38600, 38670, and 38699). […] Fluorescent signal from the PKC sensor was read on an Acumen Explorer™ microplate reader.
# Cells containing the caged sensor were incubated with 4-fold dilutions of GF109203X for 30 min before the cells were exposed to uncaging light (1 J/cm^2, 365 nm) and treated with 1 μM PMA. Fluorescent signal from the PKC sensor was read on an Acumen Explorer™ microplate reader. […]
# PKC = test: photoactivated in vitro PKC assay initiated by uncaging caged ATP; type: biochemical; settings: exposed to 365 nm UV lamp for 10 min; excitation 485 nm, emission 535 nm
# Description: FIG. 34 is a line graph depicting the results of a photoactivated PKC assay using caged ATP and a PKC sensor. […] Reactions were read on a fluorescent microtiter plate reader with excitation at 485 nm and emission at 535 nm.
# FIG. 33 (see, also, FIG. 23) illustrates the activation of an in vitro PKC assay after exposure to 365 nm light. All components were mixed together in a 96-well microtiter plate. The plate was exposed to a 365 nm UV lamp for 10 min (step 3301) and immediately placed into a fluorescent microtiter plate reader for detection. The light-activated compound is DMNPE-caged ATP. […] See, e.g., McCray and Trentham (1989) “Properties and Uses of Photoreactive Caged Compounds” Annu Rev Biophys Biophys Chem 18:239 for a description of the caged ATP. The PKC probes and reaction set-up are based on Yeh et al. (2002) “Real time visualization of protein kinase activity in living cells” J Biol Chem 277: 11527-11532, with the replacement of normal ATP by DMNPE-caged ATP.
compound,measurement,setting,value
CN(C)CCCn1cc(C2=C(c3c[nH]c4ccccc34)C(=O)NC2=O)c2ccccc21 [GF109203X],IC50,PKC enzyme,1100 nM
same,IC50,protein kinase C (PKC),1600 nM
COc1cc(C(C)OP(=O)(O)OP(=O)(O)OP(=O)(O)OCC2OC(n3cnc4c(N)ncnc43)C(O)C2O)c([N+](=O)[O-])cc1OC (stereo not drawn) [DMNPE-caged ATP],signal response (relative fluorescence) of PKC reaction,PKC,exhibits signal response similar to the reaction with normal ATP
